# Assay results from PMC7866854, “Pseudo-Dipeptide Bearing α,α-Difluoromethyl Ketone Moiety as Electrophilic Warhead with Activity against Coronaviruses” (International Journal of Molecular Sciences, 2021).
# Where two headings read alike, the source gives them in different places.
# Tests used:
# SARS-CoV-2 M^pro = settings: read-out: Exp. EC50; listed under SARS-CoV-2 Mpro; cited from earlier work
# [1] = biological target: Anopheles gambiae acetylcholinesterase (AgAChE); settings: read-out: IC50, AgAChE inhibitor; cited from earlier work
# [2] = biological target: bovine pancreatic α-chymotrypsin; parameters: method as in PMID 2353815, PMID 3527255; settings: read-out: Ki, α-chymotrypsin inhibitor; cited from earlier work
# HIV-1 protease = biological target: HIV-1 protease; parameters: method as in doi:10.1039/c39910000110; settings: read-out: Ki, HIV protease inhibitor; cited from earlier work
# SARS-CoV M^pro = settings: read-out: IC50, SARS-CoV Mpro inhibitor; cited from earlier work
# hCoV-229E = assay: CPE-based antiviral assay (CellTiter-Glo cell viability as surrogate of CPE) in MRC5 cells infected with hCoV-229E; settings: Human coronavirus 229E; for EC50: read-out: EC50, inhibition of hCoV-229E replication
# in vitro = settings: human
smiles,measurement,setting,value
Cc1cc(C(=O)N[C@@H](C)C(=O)N[C@H](C(=O)N[C@@H](CC(C)C)C(=O)N[C@H](/C=C\C(=O)OCc2ccccc2)C[C@@H]2CCNC2=O)C(C)C)no1 [N3],EC50,SARS-CoV-2 M^pro,16.8 ± 1.7 µM
CC(C)(C)c1cccc(C(=O)C(F)F)c1 [compound 1],IC50,[1],0.00605 µM
CC(C)n1cc(C(=O)C(F)F)cn1 [compound 2],IC50,[1],0.802 µM
"CC(=O)NC(CC(C)C)C(=O)NC(Cc1ccccc1)C(=O)C(F)F (stereo not drawn) [compound 4, Ac-Leu-Phe-CHF2]",Ki,[2],25 µM
CC(C)C(NC(=O)OCc1ccccc1)C(=O)NC(Cc1ccccc1)C(=O)C(F)(F)C(Cc1ccccc1)NC(=O)C(NC(=O)OCc1ccccc1)C(C)C (stereo not shown) [compound 6],Ki,HIV-1 protease,0.0001 µM
"CC(C)CC(NC(=O)OCc1ccccc1)C(=O)NC(Cc1ccccc1)C(O)(O)C(F)(F)F (stereo not drawn) [compound 7, Z-Leu-Phe-CF3]",IC50,SARS-CoV M^pro,10 µM
"CC(C)CC(NC(=O)OCc1ccccc1)C(=O)NC(CCc1ccccc1)C(O)(O)C(F)F (stereo not shown) [compound 8, Z-Leu-Homophe-CHF2]",EC50,"hCoV-229E; MRC5, 72 h",12.9 ± 1.22 µM
same,EC90,"hCoV-229E; MRC5 cells, 100 PFU/well, 72 h p.i., CellTiter-Glo, read-out: EC90, inhibition of hCoV-229E replication",38.6 ± 0.67 µM
CCC(CC)COC(=O)[C@H](C)N[P@](=O)(OC[C@H]1O[C@@](C#N)(c2ccc3c(N)ncnn23)[C@H](O)[C@@H]1O)Oc1ccccc1 [remdesivir],EC50,"hCoV-229E; MRC5 cells, 100 PFU/well, 72 h p.i., CellTiter-Glo",0.034 ± 0.0025 µM
same,CC50,in vitro,> 10 µM
